Data taken from patent US20260207713A1, “Drug Combination Kit for Controlling Blood Sugar” (Ningbo Y Biotechology lnc., priority 2023, published 2026).

Experiments:
diabetic rat models = assay: Type II diabetes rat model (high-sugar, high-fat diet plus STZ); fasting blood sugar and glycated hemoglobin after 3 months of drug intervention; type: in vivo, SPD rats
Experimental: A study in Aging (Albany NY). 2021 Mar. […] The inventor opted for 12-month-old male SPD rats (weighing between 540 grams and 560 grams) for the experiment. These rats were fed a high-sugar, high-fat diet (10% lard, 2.5% cholesterol, 1.0% pig bile salt, 20% sucrose, and 66.5% conventional feed). […] The diet continued for an additional 12 weeks. Finally, rats with a fasting blood sugar level exceeding 10 mmol/L were selected, and their fasting blood sugar levels were measured for 3 consecutive times every 3 days. Rats maintaining stable fasting blood sugar levels above 10 mmol/L were chosen. Each group comprised 5 animals, and a standard diet (18.0% fat, 24.0% protein, and 58.0% carbohydrates) was administered during the drug intervention period. Given that the lifespan of glycated hemoglobin is approximately 3 months, the duration of drug intervention was established at 3 months to ensure precise measurement of post-intervention glycated hemoglobin.
These ingredients are mixed evenly with unsaturated fish oil, and then encapsulated in ultra-long type No. 9 enteric-coated capsules. […] The ketoester was diluted with flavored water to achieve a 50% concentration, while the control solution consisted of flavored water only. The method of gastric gavage was employed.
After three months of medication, blood was drawn from the tail to measure fasting blood sugar and glycated hemoglobin, with results expressed as the mean.
Feed 50% ketoester solution three times daily: at 8 am, 12 pm, and 5 pm. The total daily intake was selected as 3 g/kg/day or 5 g/kg/day, as referenced in BMC Anesthesiol. 2023; 23:p43. […] The subsequent experiment utilized 50% ketoester solution at 3 g/day/kg.

[1] = cited from earlier work
[2] = test system: patients with type II diabetes; conditions: type II diabetes patients on chemical hypoglycemic drugs, no insulin injection, 28 consecutive days; cited from earlier work
[3] = 20 mg/kg once a day in the morning, diabetic rats
[4] = 50% ketoester solution 3 g/kg/day, three times daily by gavage, diabetic rats
[5] = 50% ketoester solution 5 g/kg/day, three times daily by gavage, diabetic rats

With `Cc1ccc([C@@H]2O[C@H](CO)[C@@H](O)[C@H](O)[C@H]2O)cc1Cc1ccc(-c2ccc(F)cc2)s1` [Canagliflozin, canagliflozin, reference compound] the “Fasting blood sugar after three months” value (diabetic rat models; [3]) was 6.38 ± 0.41 mmol/L and the “Glycated hemoglobin measurement after three months” value (from here on “Glycated hemoglobin measurement”) (diabetic rat models; [3]) was 5.63 +/− 0.42%.
For `C[C@@H](O)CCOC(=O)C[C@@H](C)O` [ketoester, (R)-3-hydroxybutyrate-(R)-1,3-butanediol ester], the “Difference in effects on fasting blood sugar and glycated hemoglobin between dosages” value (diabetic rat models; 3 g/kg/day versus 5 g/kg/day) was “no significant difference”, the “Fasting blood sugar measurement after three months” value (diabetic rat models; [4]) was 7.15 ± 0.51 mmol/L and the “Glycated hemoglobin measurement” value (diabetic rat models; [4]) was 6.82 +/− 0.34%. The “Fasting blood sugar measurement after three months” value (diabetic rat models; [5]) was 6.90 ± 0.41 mmol/L, the “Glycated hemoglobin measurement” value (diabetic rat models; [5]) was 6.75 +/− 0.42% and the “Duration of ketogenic effect” value ([1]; oral solution) was 4 to 6 h. The “Ketogenic effect (level reached)” value ([1]; oral solution) was “approximately 3 mM”, the Reduction in fructosamine [2] was 13.4% and the “Reduction in glycated hemoglobin” value [2] was 8.3%.
In the case of `CC(O)CC(=O)[O-].[Na+]` (stereo not drawn) [sodium 3-hydroxybutyrate, reference compound], the Ketogenic effects ([1]; early exogenous ketone) is listed as “poor ketogenic effects”.
